# Assays:
# [1] = tested on: X-MuLV; experiment: Dual X-MuLV inactivation by low pH and detergent in mAb protein A eluate, remaining infectivity by TCID50 assay on PG-4 cells; type: cell-based, Xenotropic Murine Leukemia Virus; conditions: for required inactivation time compared with 0.2% Tween 80 / time required for X-MuLV inactivation: 16° C.; for treatment time to completely inactivate X-MuLV: 18° C.
# Description: […] The pH adjusted eluates were then filtered by a 0.22 um filter. Various volumes of 5% detergent stock solution were then added to the filtered protein A eluates. The low pH protein A eluates containing Mega-10, Tween 80 or Tween 20 were pre-incubated at a 16° C. water bath prior to spiking with X-MuLV at a 1:20 ratio. After a thorough mixing, an aliquot of sample was removed immediately and neutralized with 1 M Tris buffer to stop low pH viral inactivation, then immediately quenched with diluent at 1:12 for Mega-10 or at 1:100 for Tween 20 and Tween 80 to stop viral inactivation by the detergent. The collected sample was designated as a time-zero reference. The remaining spiked eluate was returned to the water bath and the samples were collected at indicated times to evaluate the viral inactivation kinetics. The remaining X-MuLV infectivity in the samples post-inactivation treatment was determined by a TCID50 assay that is an endpoint dilution assay to quantify the amount of virus required to produce a cytopathic effect in 50% of inoculated tissue culture cells. Virus titers were estimated using the Spearman-Karber method and reported as TCID50/mL with a calculated 95% confidence interval (CI). Briefly, a sufficient number of 96-well plates with PG-4 (feline S^+L^−, ATCC#CRL-2032) cells were prepared the day before starting the viral inactivation experiments and incubated overnight in a 37° C. humidified CO2 incubator. A set of ten 3.2 fold dilution of the diluted positive control (1:100) and viral inactivated samples were prepared in a dilution block. Each set of the 11 serial dilutions of the samples were inoculated correspondingly onto wells (100 μL per well) of the first 11 columns in a 96-well plate that had been pre-seeded with PG-4 cells. The 12th column in the same plate was inoculated with the corresponding diluent to serve as non-virus negative control. The positive control was prepared by spiking the filtered neutralized protein A eluate with X-MuLV at a 1:20 ratio. The inoculated plates were then incubated in a 37° C. humidified CO2 incubator for approximate 2 hours. A volume of 100 uL of 2× assay medium (92% McCoy's 5A medium, 4% FBS, 2% Penicillin/Streptomycin, 2% L-Glutamine) was added to each well of the plates at the end of incubation. The plates were then returned to the same incubator, and continued incubation for 6 days. Each well of the plates were scored under a microscope for the presence of cytopathic effect (CPE) and the results were recorded in a scoring sheet. Virus titers were then estimated using the Spearman-Karber method and reported as TCID50/mL with a calculated 95% confidence interval (CI).
# [2] = tested on: retroviruses; conditions: Triton X-100 ≥0.5%; hold time ≥60 minutes; 15-25° C.; pH 6.0-8.0; clarified, cell-free intermediate of mAb or IgG Fc fusion protein; cited from earlier work
Compound,"time needed for inactivating X-MuLV to the level below the detection limit ([1]; dual treatment: mAb2 protein A eluate pH 4.05 with 0.5% Tween 80, 16° C. (120 minutes by pH 4.0 alone at 18° C.))","incubation time needed for inactivation of X-MuLV to the level below the detection limit ([1]; dual treatment: mAb3 (IgG2) protein A eluate pH 3.97 with 0.5% Tween 80, 16° C. (120 minutes by low pH alone))","required inactivation time ([1]; dual treatment: mAb3 protein A eluate pH 3.99 with 0.2% Tween 80, 16° C. (120 minutes without detergent))",required inactivation time compared with 0.2% Tween 80 ([1]; dual treatment: mAb3 protein A eluate pH 3.99 with 0.3% Tween 80),required inactivation time compared with 0.2% Tween 80 ([1]; dual treatment: mAb3 protein A eluate pH 3.99 with 0.5% Tween 80),time required for X-MuLV inactivation ([1]; mAb3 protein A eluate containing 0.1% Tween 80 at pH 3.7),time required for X-MuLV inactivation ([1]; mAb3 protein A eluate containing 0.1% Tween 80 at pH 3.8),time required for X-MuLV inactivation ([1]; mAb3 protein A eluate containing 0.1% Tween 80 at pH 3.9),time required for X-MuLV inactivation ([1]; mAb3 protein A eluate containing 0.1% Tween 80 at pH 4.0),treatment time to completely inactivate X-MuLV ([1]; mAb4 protein A eluate at pH 4.11 containing 1% Tween 80),treatment time to completely inactivate X-MuLV ([1]; mAb4 protein A eluate at pH 4.20 containing 1% Tween 80),treatment time to completely inactivate X-MuLV ([1]; mAb4 protein A eluate at pH 4.30 containing 1% Tween 80),LRF of retroviral inactivation [2]
CCCCCCCC/C=C\CCCCCCCC(=O)OCCOCC(OCCO)C1OCC(OCCO)C1OCCO (stereo not shown) [Tween 80],10 min,5 min,5 min,no further reducing of time,no further reducing of time,0 min,1 min,2.5 min,10 min,1 h,3 h,4 h,–
Triton X-100,–,–,–,–,–,–,–,–,–,–,–,–,≥ 4.0

# Reference: patent US12123028B2, “Viral inactivation methods for continuous manufacturing of antibodies” (Bayer HealthCare LLC, priority 2018, dated 2024)
